Results published in patent US20060069132A1, “Azolecarboxamide herbicides” (priority 2004, published 2006).
Where two headings read alike, the source gives them in different places.

How the values were obtained:
[1] = tested on: velvetleaf; experiment: Test A pre-/postemergence herbicide test; type: in vivo, Abutilon theophrasti
Procedure, shortened: (§1)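 Seeds sown in sandy loam received a preemergence directed soil spray of compound in non-phytotoxic solvent with surfactant; postemergence plants (2–10 cm, one- to two-leaf stage) were sprayed to runoff at the same time. After ~10 days in greenhouse, injury was rated visually versus untreated controls (0 = no effect, 100 = complete control).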

[2] = tested on: goosegrass; experiment: Test C pre-/postemergence herbicide test; type: in vivo, Eleusine indica
Description: (§2) Seeds of plant species selected from bermudagrass (Cynodon dactylon (L.) Pers.), Surinam grass (Urochloa decumbens (Staph) R. D. Webster, previously named Brachiaria decumbens Stapf), cocklebur (Xanthium strumarium L.), corn (Zea mays L.), large crabgrass (Digitaria sanguinalis (L.) Scop.), woolly cupgrass (Eriochloa villosa (Thunb.) Kunth), giant foxtail (Setaria faberi Herrm.), goosegrass (Eleusine indica (L.) Gaertn.), johnsongrass (Sorghum halepense (L.) Pers.), kochia (Kochia scoparia (L.) Schrad.), lambsquarters (Chenopodium album L.), morningglory (Ipomoea coccinea L.), eastern black nightshade (Solanum ptycanthum Dunal), yellow nutsedge (Cyperus esculentus L.), pigweed (Amaranthus retroflexus L.), common ragweed (Ambrosia elatior L.), soybean (Glycine max (L.) Merr.), common (oilseed) sunflower (Helianthus annuus L.) and velvetleaf (Abutilon theophrasti Medik.) were planted and treated preemergence with test chemicals formulated in a non-phytotoxic solvent mixture which included a surfactant.
(§3) At the same time, plants selected from these crop and weed species and also winter barley (Hordeum vulgare L.), blackgrass (Alopecurus myosuroides Huds.), canarygrass (Phalaris minor Retz.), chickweed (Stellaria media (L.) Vill.), downy bromegrass (Bromus tectorum L.), green foxtail (Setaria viridis (L.) Beauv.), Italian ryegrass (Lolium multiflorum Lam.), wheat (Triticum aestivum L.), wild oat (Avenafatua L.) and windgrass (Apera spica-venti (L.) Beauv.) were treated with postemergence applications of some of the test chemicals formulated in the same manner. Plants ranged in height from 2 to 18 cm (1- to 4-leaf stage) for postemergence treatments. Plant species in the flooded paddy test consisted of rice (Oryza sativa), smallflower umbrella sedge (Cyperus difformis L.), ducksalad (Heteranthera limosa (Sw.) Willd.) and barnyardgrass (Echinochloa crus-galli (L.) Beauv.) grown to the 2-leaf stage for testing. Treated plants and controls were maintained in a greenhouse for 12 to 14 days, after which time all species were compared to controls and visually evaluated. Plant response ratings, summarized in Table C, are based on a scale of 0 to 100 where 0 is no effect and 100 is complete control. A dash (-) response means no test result.

[3] = tested on: velvetleaf; experiment: Test C pre-/postemergence herbicide test; type: in vivo, Abutilon theophrasti
Description: as §2, §3

[4] = tested on: cocklebur; experiment: Test C pre-/postemergence herbicide test; type: in vivo, Xanthium strumarium
Description: as §2, §3

[5] = tested on: yellow nutsedge; experiment: Test C pre-/postemergence herbicide test; type: in vivo, Cyperus esculentus
Description: as §2, §3

[6] = tested on: morningglory; experiment: Test A pre-/postemergence herbicide test; type: in vivo, Ipomoea spp.; settings: for pest or weed control at 500 g/ha / pest or weed control at 2000 g/ha: Ipomoea, 240 h
Procedure, shortened: as §1

[7] = tested on: soybean; experiment: Test C pre-/postemergence herbicide test; type: in vivo, Glycine max
Description: as §2, §3

[8] = tested on: lambsquarters; experiment: Test C pre-/postemergence herbicide test; type: in vivo, Chenopodium album
Description: as §2, §3

[9] = tested on: ducksalad; experiment: Test C flooded paddy test; type: in vivo, Heteranthera limosa; settings: for Plant response rating, Ducksalad: 500 g ai/ha, visual rating after 12 to 14 days
[10] = tested on: barnyardgrass; experiment: Test C flooded paddy test; type: in vivo, Echinochloa crus-galli; settings: for Plant response rating, Barnyardgrass: 500 g ai/ha, visual rating after 12 to 14 days
Procedure, shortened: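 Plants were grown to the 1- to 4-leaf stage (2–18 cm) and then treated postemergence, or grown to the 2-leaf stage for the flooded paddy test. They were held in a greenhouse for 12 to 14 days and then scored by eye against controls, where 0 is no effect and 100 is complete control.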

[11] = Postemergence, 500 g ai/ha, scale 0 to 100
[12] = 125 g ai/ha, scale 0 to 100 (0 no effect, 100 complete control)
[13] = 250 g ai/ha, scale of 0 to 100, 0 is no effect, 100 is complete control
[14] = scale 0 to 100 (0 no effect, 100 complete control)
[15] = 62 g ai/ha, scale 0 to 100 (0 no effect, 100 complete control)
[16] = Postemergence, 500 g ai/ha, 0 to 100 scale, 0 no effect, 100 complete control
[17] = Postemergence, 2000 g ai/ha, 0 to 100 scale, 0 no effect, 100 complete control
[18] = Preemergence, 2000 g ai/ha, visual rating, 0 to 100 scale (0 no effect, 100 complete control)
[19] = preemergence, 500 g ai/ha, visual injury, 0 to 100 scale (0 no effect, 100 complete control)
[20] = Postemergence, 250 g ai/ha, scale 0 to 100, 0 no effect, 100 complete control
[21] = Postemergence, 500 g ai/ha, scale 0 to 100, 0 no effect, 100 complete control
[22] = postemergence, 125 g ai/ha, scale 0 to 100
[23] = postemergence, 62 g ai/ha, scale 0 to 100

CCn1nc(C(C)(C)C)cc1C(=O)Nc1cccc(C(=O)OCCF)c1 [Compound 82, 2-fluoroethyl 3-[[[3-(1,1-dimethylethyl)-1-ethyl-1H-pyrazol-5-yl]-carbonyl]amino]benzoate]
pest or weed control at 2000 g/ha ([1]; Abutilon theophrasti, post-emergence, 240 h, Postemergence, 2000 g ai/ha, 0 to 100 scale, 0 no effect, 100 complete control, read-out: Plant response rating, Velvetleaf): 30%
pest or weed control at 500 g/ha ([1]; Abutilon theophrasti, pre-emergence, 240 h, Preemergence, 500 g ai/ha, visual rating, 0 to 100 scale (0 no effect, 100 complete control), read-out: Velvetleaf plant response rating): 0%
pest or weed control at 2000 g/ha ([1]; Abutilon theophrasti, pre-emergence, 240 h, Preemergence, 2000 g ai/ha, visual rating, 0 to 100 scale (0 no effect, 100 complete control), read-out: Velvetleaf plant response rating): 0%
pest or weed control at 250 g/ha ([2]; Eleusine indica, post-emergence, 312 h, Postemergence, 250 g ai/ha, scale 0 to 100, 0 no effect, 100 complete control, read-out: Plant response rating, Goosegrass): 10%
pest or weed control at 125 g/ha ([2]; Eleusine indica, post-emergence, 312 h, postemergence, 125 g ai/ha, scale 0 to 100, read-out: Plant response rating, Goosegrass): 10%
pest or weed control at 62 g/ha ([2]; Eleusine indica, post-emergence, 312 h, postemergence, 62 g ai/ha, scale 0 to 100, read-out: Plant response rating, Goosegrass): 0%
Goosegrass plant response rating [2, 11]: 10
pest or weed control at 250 g/ha ([3]; Abutilon theophrasti, post-emergence, Postemergence, 250 g ai/ha, scale 0 to 100, 0 no effect, 100 complete control, read-out: Plant response rating, Velvetleaf): 70%
pest or weed control at 125 g/ha ([3]; Abutilon theophrasti, post-emergence, postemergence, 125 g ai/ha, scale 0 to 100, read-out: Plant response rating, Velvetleaf): 10%
pest or weed control at 62 g/ha ([3]; Abutilon theophrasti, post-emergence, postemergence, 62 g ai/ha, scale 0 to 100, read-out: Plant response rating, Velvetleaf): 5%
Velvetleaf plant response rating [3, 11]: 75
pest or weed control at 500 g/ha ([4]; Xanthium strumarium, post-emergence, 312 h, Postemergence, 500 g ai/ha, scale 0 to 100, read-out: Cocklebur plant response rating): 20%
pest or weed control at 250 g/ha ([4]; Xanthium strumarium, post-emergence, 312 h, Postemergence, 250 g ai/ha, scale 0 to 100, 0 no effect, 100 complete control, read-out: Plant response rating, Cocklebur): 5%
pest or weed control at 125 g/ha ([4]; Xanthium strumarium, post-emergence, 312 h, postemergence, 125 g ai/ha, scale 0 to 100, read-out: Plant response rating, Cocklebur): 5%
pest or weed control at 62 g/ha ([4]; Xanthium strumarium, post-emergence, 312 h, postemergence, 62 g ai/ha, scale 0 to 100, read-out: Plant response rating, Cocklebur): 5%
pest or weed control at 250 g/ha ([5]; Cyperus, post-emergence, Postemergence, 250 g ai/ha, scale 0 to 100, 0 no effect, 100 complete control, read-out: Plant response rating, Nutsedge, Yellow): 5%
pest or weed control at 125 g/ha ([5]; Cyperus, post-emergence, postemergence, 125 g ai/ha, scale 0 to 100, read-out: Plant response rating, Nutsedge, Yellow): 5%
pest or weed control at 62 g/ha ([5]; Cyperus, post-emergence, postemergence, 62 g ai/ha, scale 0 to 100, read-out: Plant response rating, Nutsedge, Yellow): 0%
Nutsedge, Yellow plant response rating [5, 11]: 5
pest or weed control at 500 g/ha ([6]; post-emergence, Postemergence, 500 g ai/ha, 0 to 100 scale, 0 no effect, 100 complete control, read-out: Plant response rating, Morningglory): 20%
pest or weed control at 2000 g/ha ([6]; post-emergence, Postemergence, 2000 g ai/ha, 0 to 100 scale, 0 no effect, 100 complete control, read-out: Plant response rating, Morningglory): 10%
pest or weed control at 500 g/ha ([6]; pre-emergence, Preemergence, 500 g ai/ha, visual rating, 0 to 100 scale (0 no effect, 100 complete control), read-out: Morningglory plant response rating): 0%
pest or weed control at 2000 g/ha ([6]; pre-emergence, Preemergence, 2000 g ai/ha, 0 to 100 scale, 0 no effect, 100 complete control, read-out: Morningglory plant response rating): 15%
plant injury at 250 g/ha ([7]; Glycine max, post-emergence, Postemergence, 250 g ai/ha, scale 0 to 100, 0 no effect, 100 complete control, read-out: Plant response rating, Soybean): 40%
plant injury at 125 g/ha ([7]; Glycine max, post-emergence, postemergence, 125 g ai/ha, scale 0 to 100, read-out: Plant response rating, Soybean): 30%
plant injury at 62 g/ha ([7]; Glycine max, post-emergence, postemergence, 62 g ai/ha, scale 0 to 100, read-out: Plant response rating, Soybean): 20%
Soybean plant response rating [7, 11]: 40
pest or weed control at 250 g/ha ([8]; Chenopodium album, post-emergence, Postemergence, 250 g ai/ha, scale 0 to 100, 0 no effect, 100 complete control, read-out: Plant response rating, Lambsquarters): 80%
pest or weed control at 125 g/ha ([8]; Chenopodium album, post-emergence, postemergence, 125 g ai/ha, scale 0 to 100, read-out: Plant response rating, Lambsquarters): 50%
pest or weed control at 62 g/ha ([8]; Chenopodium album, post-emergence, postemergence, 62 g ai/ha, scale 0 to 100, read-out: Plant response rating, Lambsquarters): 30%
Lambsquarters plant response rating [8, 11]: 100

C#CCNC(=O)c1cccc(NC(=O)c2sc(C(C)(C)C)nc2CC)c1 [Compound 319]
Ducksalad plant response rating ([9]; 62 g ai/ha, scale 0 to 100): 0
Ducksalad plant response rating [9, 12]: 0
Ducksalad plant response rating [9, 13]: 45
Plant response rating, Ducksalad [9, 14]: 85
Barnyardgrass plant response rating [10, 15]: 0
Barnyardgrass plant response rating [10, 12]: 25
Barnyardgrass plant response rating [10, 13]: 50
Plant response rating, Barnyardgrass [10, 14]: 65
Velvetleaf plant response rating [1, 16]: 20
Plant response rating, Velvetleaf [1, 17]: 30
Velvetleaf plant response rating [1, 18]: 45
Velvetleaf plant response rating [1, 19]: 35
Morningglory plant response rating [6, 16]: 15
Plant response rating, Morningglory [6, 17]: 25
Morningglory plant response rating [6, 18]: 60
Morningglory plant response rating [6, 19]: 20

CCn1nc(C(C)(C)C)cc1C(=O)Nc1cc(OC(F)(F)F)ccc1F [Compound 338]
Velvetleaf plant response rating [1, 16]: 40
Plant response rating, Velvetleaf [1, 17]: 60
Velvetleaf plant response rating [1, 18]: 50
Velvetleaf plant response rating [1, 19]: 20
Plant response rating, Goosegrass [2, 20]: 10
Plant response rating, Goosegrass [2, 21]: 10
Plant response rating, Goosegrass [2, 22]: 5
Plant response rating, Goosegrass [2, 23]: 0
Plant response rating, Velvetleaf [3, 20]: 40
Plant response rating, Velvetleaf [3, 21]: 80
Plant response rating, Velvetleaf [3, 22]: 0
Plant response rating, Velvetleaf [3, 23]: 0
Plant response rating, Cocklebur [4, 20]: 5
Plant response rating, Cocklebur [4, 21]: 5
Plant response rating, Cocklebur [4, 22]: 0
Plant response rating, Cocklebur [4, 23]: 0
Plant response rating, Nutsedge, Yellow [5, 20]: 0
Plant response rating, Nutsedge, Yellow [5, 21]: 0
Plant response rating, Nutsedge, Yellow [5, 22]: 0
Plant response rating, Nutsedge, Yellow [5, 23]: 0
Morningglory plant response rating [6, 16]: 25
Plant response rating, Morningglory [6, 17]: 70
Morningglory plant response rating [6, 18]: 40
Morningglory plant response rating [6, 19]: 10
Plant response rating, Soybean [7, 20]: 35
Plant response rating, Soybean [7, 21]: 60
Plant response rating, Soybean [7, 22]: 30
Plant response rating, Soybean [7, 23]: 10
Plant response rating, Lambsquarters [8, 20]: 75
Plant response rating, Lambsquarters [8, 21]: 75
Plant response rating, Lambsquarters [8, 22]: 5
Plant response rating, Lambsquarters [8, 23]: 0

CCN(C(C)=O)C(=O)c1ccc(F)c(NC(=O)c2cc(C(C)(C)C)nn2CC)c1 [Compound 413]
Ducksalad plant response rating ([9]; 62 g ai/ha, scale 0 to 100): 15
Ducksalad plant response rating [9, 12]: 45
Ducksalad plant response rating [9, 13]: 70
Plant response rating, Ducksalad [9, 14]: 70
Barnyardgrass plant response rating [10, 15]: 0
Barnyardgrass plant response rating [10, 12]: 25
Barnyardgrass plant response rating [10, 13]: 70
Plant response rating, Barnyardgrass [10, 14]: 80
Velvetleaf plant response rating [1, 16]: 40
Plant response rating, Velvetleaf [1, 17]: 55
Velvetleaf plant response rating [1, 18]: 35
Velvetleaf plant response rating [1, 19]: 35
Morningglory plant response rating [6, 16]: 10
Plant response rating, Morningglory [6, 17]: 20
Morningglory plant response rating [6, 18]: 15
Morningglory plant response rating [6, 19]: 5
